Source: a melting point compilation (Tetko et al.; mined from patent text by program, amines drawn as free bases though some values may be those of a salt)

Row | Structure (SMILES) | melting point [°C]
1 | CC(C)(CO)[C@@H](O)C#N | 110
2 | [N-]=[N+]=NCCc1c[nH]c(=O)[nH]c1=O | 230 to 235
3 | CSc1ncc(C(=N)NO)cc1Cl | 139 to 143
4 | CCOC(=O)c1csc(N2CCOC2=O)n1 | 157 to 159
5 | CCc1nc2c(N)nc(-c3ccncc3)nc2[nH]1 | > 300
6 | C=C1SC(=S)N(c2ccc3cc(-c4ccc(OC)c(C(C)(C)C)c4)ccc3c2)C1=O | 281 to 284
7 | COc1ccc(C(=O)CN2CCNC2=O)cc1OC | 167
8 | COC(=O)c1ccc(-c2oc3cc(NS(C)(=O)=O)ccc3c(=O)c2OS(C)(=O)=O)cc1 | 250
9 | N#CC=Cc1cccc(Br)c1 | 62
10 | Cc1cc(C)c(-c2c(OCOCC(C)C)oc(-c3ccsc3)c(C)c2=O)c(C)c1 | 102 to 104
11 | Cn1nc(C(F)(F)F)cc1Oc1cccc(-c2nc(C(F)(F)F)no2)n1 | 91 to 93
12 | CN(C)C=Nc1sc(C#N)c(Cl)c1C#N | 226
13 | Cc1ccc(CCc2cc3c(s2)NC(=S)CN=C3c2ccccc2Cl)cc1 | 190 to 191
14 | Cc1cc(-c2cc(C(F)F)n3ncc(C(=O)Nc4nc(C)c(S(N)(=O)=O)s4)c3n2)ccc1C(F)(F)F | 307
15 | COc1ccc(-c2cc(-c3c(-c4ccccn4)nc4ccccn34)ccn2)cc1 | 222
16 | CCOC(=O)CN(C)C(=O)CCN(C(=O)c1ccc(Cl)cc1)c1ccc(OC)cc1 | 104 to 106
17 | Cc1cc(C)cc(C#N)c1 | 51 to 52
18 | c1cc(Oc2ccc3c(c2)CCCN3)ccn1 | 117 to 122
19 | O=C1OC(=O)c2c1cccc2C(Cl)(Cl)Cl | 121 to 124
20 | Cc1nc(C)n(-c2cc(C)c3[nH]c(=O)ccc3c2)c1I | 242 to 245
21 | CC(=O)c1c(C)c2cnc(N)nc2n(C2CCCC2)c1=O | 182 to 186
22 | CC1(C)OC2OC(C3NC(=O)CC3O)C(O)C2O1 (stereo not drawn) | 263 to 265
23 | CCC(=O)NC1CCc2cc(OC)ccc2C1 (stereo not drawn) | 125
24 | Cc1c(C)c2ccc(OCCCCN3CCN(c4cccc(Cl)c4Cl)CC3)nc2[nH]c1=O | 161 to 163
25 | Cc1ccsc1C(O)CCN(C)C (stereo not drawn) | 41.5 to 42.5
26 | CC(=O)C=Cc1ccc2sccc2c1 | 75

Row | Structure (SMILES) | melting point [°C]
27 | COC(=O)CCc1cnc(C)s1 | 115
28 | O=S(=O)(NCCC(F)=C(F)F)c1ccc(C(F)(F)F)cc1 | 68 to 70
29 | Nc1cc(-c2c(-c3ccc(Cl)cc3)nc3cccnn23)ccn1 | 252 to 253
30 | CN(C)S(=O)(=O)c1ccc(Oc2ccc([N+](=O)[O-])cc2C#N)cc1 | 222 to 223
31 | Cc1cccc2nc(-c3c(F)cccc3F)[nH]c12 | 148
32 | CCOC(=O)c1cn(C)c2nc3cc(N4CCNC(c5ccco5)C4)c(F)cc3cc2c1=O (racemic) | 198 to 200
33 | COc1ccc2c(C(=O)C(F)(F)F)c[nH]c2c1 | 206 to 208
34 | CCCCCCCCCCN=C=S | 71 to 72
35 | CC(=O)NCC1CCC(Nc2nc3c(s2)CCCc2ccc(F)cc2-3)CC1 (stereo not drawn) | 88 to 91
36 | CN1CCN(C2Cc3ccccc3Sc3cc(F)c(Cl)cc32)CC1 (stereo not drawn) | 105 to 107
37 | CC(C)OP(=O)(/C=C/CCn1cnc2c(N)nc(N)nc21)OC(C)C | 211 to 213
38 | CN(C)CCOc1ccc([C@H]2C[C@]3(C)C(=O)CC[C@H]3[C@@H]3CCc4c(ccc(O)c4Cl)[C@H]32)cc1 | 254
39 | COc1cc(N2CCN(C[C@H](C)O)CC2)ccc1Nc1ncc2ccc(-c3cc(Cl)ccc3OC)n2n1 | 163 to 166
40 | Brc1cccc2[nH]c(-c3ccccc3)c(CCN3CCCCC3)c12 | > 230
41 | CCN(CCC12CC3CC(CC(C3)C1)C2)C(=O)NCCCc1ccncc1 | 106 to 115
42 | COc1cc(C=C[N+](=O)[O-])cc(OC)c1OC | 116 to 118
43 | CN1CC(Cn2cnnn2)CC2c3cccc4[nH]cc(c34)CC21 (stereo not drawn) | 206 to 209
44 | CC1(C)C(=O)OC2=C1CC(OS(C)(=O)=O)C=C2 (stereo not drawn) | 120 to 121
45 | NC(=O)c1cccc(-c2nc3sccn3c2-c2ccnc(N[C@@H]3CCCNC3)n2)c1 | 202 to 205
46 | C[C@@H]1S[C@@H](C(=O)Nc2ccc(Cn3oc(=O)[nH]c3=O)cc2)Cc2cc3c(cc2C1=O)OCO3 | 237 to 239
47 | CC(=O)OCC(=O)C12OCOC1CC1C3CCC4=CC(=O)C=CC4(C)C3(F)C(O)CC12C (stereo not drawn) | 283 to 285
48 | COc1cc(S(=O)(=O)C(c2cc(F)ccc2F)c2cc(N)ncc2Cl)ccc1Cl (stereo not drawn) | 198 to 200
49 | CC(=NO)C1CC(Cn2ccnc2)(c2ccc(Cl)cc2)N(C)O1 (stereo not drawn) | 214 to 216
50 | c1cc(-c2cccc3ncoc23)c2ocnc2c1 | 226 to 228
51 | Cc1ccc(S(=O)(=O)N=c2ccc(C)cn2-c2cccc(C(F)(F)F)c2)cc1 | 174

Further lines, results first:

Row | melting point [°C] | Structure (SMILES)
52 | 123 to 125 | Cc1cccc(C)c1-c1cccc(C(N)=O)c1
53 | 148 to 150 | CC(=NO)c1nn(C)c2cc(Oc3ccc(Cl)cc3)ccc12
54 | 106 to 107 | N#Cc1c(Sc2ccccc2)cccc1[N+](=O)[O-]
55 | 110 | C[C@H](NC(=O)OC(C)(C)C)C(=O)OC[C@@H]1CCCN1c1cccc2c1C(=O)c1ccccc1C2=O
56 | 81 to 84 | CN(C[C@H]1CC[C@H](NC(=O)OCc2ccccc2)CC1)C1CCOCC1
57 | 100 to 101 | NC(=O)CC(O)CCCCCNC(=O)OCc1ccccc1 (stereo not drawn)
58 | 119 | CS(=O)(=O)c1ccc(-n2cncc2-c2ccc(F)cc2F)cc1
59 | 100 to 103 | OC(Cn1cncn1)(Cn1cnc(Cc2ccc(F)cc2)n1)c1ccccc1C(F)(F)F (stereo not drawn)
60 | 109 | CCCC(=O)c1cc2ccccc2cc1C(=O)O
61 | 42 to 45 | CC(C)N(CCOc1ccc(-c2nnc(CSCCOc3ccccc3)o2)cc1)C(C)C
62 | 189 to 190 | Clc1ccc2c(c1)c(-c1ccccc1)nn1cnnc21
63 | 50 to 51 | CC(C=O)Oc1ccc(OCc2ccccc2)cc1 (stereo not drawn)
64 | 193 to 194 | CCOC(=O)c1nc(-c2ccc(F)cc2)c(-c2ccc(=O)n(C(C)C)n2)s1
65 | 105 to 107 | CCOC(=O)c1nccn1Cc1ccc(Cl)cc1[N+](=O)[O-]
66 | 167 to 169 | Cn1nc(C2(OCC3CCN(C(=O)OC(C)(C)C)CC3)C=CC=CC2)c2ccccc2c1=O (stereo not drawn)
67 | 62 to 64 | O=C(CCCCNC(=O)C(=O)c1cn2c3c(cccc13)CCC2)NOCc1ccccc1
68 | 133 | CC(CN1CCCC1)N1c2ccccc2Sc2ccc(C(=O)NCC3CCC3)cc21 (racemic)
69 | 229 to 233 | Cc1c(Cc2ccccc2)c(=O)oc2cc(OCc3nnn[nH]3)cc(OCc3nnn[nH]3)c12
70 | 58 to 60 | COc1ccc(C(=O)c2ccc(OCc3ccccc3)nc2)c(OC(C)(C)C(=O)OC(C)(C)C)c1
71 | 262 to 265 | O=C(OCc1cc2c3ccccc3[nH]c(=O)n2n1)c1ccccc1
72 | 120 to 121 | O=c1c(O)c(-c2ccc(OCc3ccccc3)c(OCc3ccccc3)c2)oc2cc(OCc3ccccc3)ccc12
73 | 230 to 235 | CC1(C)Oc2ccc(C(N)=O)cc2C(c2cccn(Cc3ccccc3)c2=O)C1O (stereo not drawn)
74 | 45 to 50 | CC(C)(Cc1ccccc1)C(=O)C(Cc1ccccc1)n1cncn1 (stereo not drawn)
75 | > 260 | CCc1cc(OC)c(-c2csc(NC(=O)c3cc4ccccc4[nH]3)n2)c(OC)c1
76 | 122 to 123 | COc1ccc2ccccc2c1CCl
77 | 131 to 133 | CCCN1CCN=C1c1ccccc1C(=O)c1ccc(Cl)cc1

Row | melting point [°C] | Structure (SMILES)
78 | 254 to 256 | Cn1c([N+](=O)[O-])cnc1C=Cc1cccc(C(N)=O)c1
79 | 307 to 309 | CC(C)(C(=O)O)c1ccc(C(=O)Nc2cn3cc(-c4ccoc4)ccc3n2)cc1
80 | 195 | COc1cccc(-c2nc(N)ncc2-c2ccc(=O)n(C)n2)c1
81 | 171 to 173 | COc1ccc(F)cc1C(C)(C)CC(=O)C(=O)Nc1ccc2c(=O)onc(C)c2c1
82 | 229 to 231 | CCc1cccc(C)c1CNc1cc(C(=O)N2CCOCC2)cc2c1nc(C)n2C
83 | 232 to 237 | C=CC[C@H](C(N)=O)[C@@H](CC(C)C)C(=O)NC1N=C(N2CCCCCC2)c2ccccc2N(C)C1=O (stereo partly drawn)
84 | 97 to 100 | CC#CCOc1ccc(S(=O)(=O)N(C)C(C(=O)NO)C(C)(C)SCCn2ccnc2)cc1 (stereo not drawn)
85 | 106 to 107 | CCOC(=O)Cc1c(C)n(Cc2ccccc2)c2ccc(OCc3nc4ccccc4s3)cc12
86 | 300 to 301 | O=c1c2cccnc2n(-c2cccc(Cl)c2)c2cc[nH]c12
87 | 236 | O=C(O)C=Cc1cc(=O)c(OCc2ccccc2)c[nH]1
88 | 87 to 88 | O=C(CCCl)N(O)c1ccccc1
89 | 115 to 117 | Cc1ccc(NCc2ccc[nH]2)cc1O
90 | 91 to 92 | CC(C)Cn1c(-c2c(F)cccc2F)cnc(-n2cccn2)c1=O
91 | 178 to 181 | O=C(O)CC1(c2cccc(Cl)c2)CNC(=O)C1 (stereo not drawn)
92 | 68 | N#CC(c1ccc(F)cc1)c1ccc([N+](=O)[O-])cc1C(F)(F)F (stereo not drawn)
93 | 135 to 140 | C[N+]([O-])(c1cnccc1[N+](=O)[O-])n1cccc1 (stereo not drawn)
94 | 157 to 159 | Cc1nc(OC(C)C(=O)O)nn1-c1ccccc1 (stereo not drawn)
95 | 134 to 135 | CCC(C)CNC(=O)c1ccc2cccc(Cc3ccc(C(=O)OC)cc3OC)c2c1 (stereo not drawn)
96 | 57 to 58 | C=CCC1C(OCc2ccccc2)CC(OCc2ccccc2)C1OS(=O)(=O)c1ccc(C)cc1 (single isomer, unassigned; (-))
97 | 195 to 197 | O=C1Cc2cccc(Oc3ccc4ccccc4c3)c2N1
98 | 144 to 146 | OC(CCc1ccccc1)c1c[nH]cn1 (stereo not drawn)
99 | 128 to 131 | CC(C)(C)NC(=O)c1ccc(-c2cccc3cncn23)cc1
100 | 188 to 191 | Cc1cccc(Nc2cc(Cl)nc(SCC(N)=O)n2)c1C
101 | 200 to 202 | COc1ccccc1Nc1c(C(=O)c2ccccc2)cnc2c(OC)cccc12
102 | 90.1 | O=[N+]([O-])c1c(Br)nn(CC(O)CO)c1NCc1ccccc1 (stereo not drawn)
103 | 131 to 135 | CC(=O)Nc1ccc([N+](=O)[O-])c(C=O)c1
